Source: patent US4831026A, “2-oxa-isocephem compounds, compositions containing same and processes of using” (Otsuka Pharmaceutical Co., Ltd., priority 1985, dated 1989)
Where two headings read alike, the source gives them in different places.

Experiments:
S. aureus FDA-209-p = experiment: Antimicrobial activity test: MIC by the agar plate dilution method, S. aureus FDA-209-p; type: cell-based, Staphylococcus aureus; details: inoculum 1×10^6 cells/ml
Procedure: (§1) In order to investigate the in vitro activity of the under-mentioned compounds against various bacteria, the minimal inhibitory concentration (MIC) values were determined by the agar plate dilution method [see Chemotherapy, 22, 1126-1128 (1974)].
(§2) Each test inoculum was adjusted to 1×10^6 cells/ml (O.D., 600 mμ: 0.07-0.16).

E. coli No. 29 = experiment: Antimicrobial activity test: MIC by the agar plate dilution method, E. coli No. 29; type: cell-based
Procedure: as §1, §2

K. pneumoniae NCTC-9632 = experiment: Antimicrobial activity test: MIC by the agar plate dilution method, K. pneumoniae NCTC-9632; type: cell-based; details: inoculum 1×10^6 cells/ml
Procedure: as §1, §2

P. mirabilis 1287 = experiment: Antimicrobial activity test: MIC by the agar plate dilution method, P. mirabilis 1287; type: cell-based
Procedure: as §1, §2

M. morganii ATCC-25830 = experiment: Antimicrobial activity test: MIC by the agar plate dilution method, M. morganii ATCC-25830; type: cell-based; details: inoculum 1×10^6 cells/ml
Procedure: as §1, §2

S. marcescens IFO-12648 = experiment: Antimicrobial activity test: MIC by the agar plate dilution method, S. marcescens IFO-12648; type: cell-based
Procedure: as §1, §2

P. aeruginosa NCTC-10490 = experiment: Antimicrobial activity test: MIC by the agar plate dilution method, P. aeruginosa NCTC-10490; type: cell-based; details: inoculum 1×10^6 cells/ml
Procedure: as §1, §2

[1] = E. coli No. 29, inoculum 1×10^6 cells/ml
[2] = P. mirabilis 1287, inoculum 1×10^6 cells/ml
[3] = S. marcescens IFO-12648, inoculum 1×10^6 cells/ml

Substance | MIC (S. aureus FDA-209-p) [µg/mL] | MIC (E. coli No. 29; [1]) [µg/mL] | MIC (K. pneumoniae NCTC-9632) [µg/mL] | MIC (P. mirabilis 1287; [2]) [µg/mL] | MIC (M. morganii ATCC-25830) [µg/mL] | MIC (S. marcescens IFO-12648) [µg/mL] | MIC (P. aeruginosa NCTC-10490) [µg/mL] | MIC (E. coli No. 29) [µg/mL] | MIC (S. marcescens IFO-12648; [3]) [µg/mL] | MIC (P. mirabilis 1287) [µg/mL]
7-[2-(2-Aminothiazol-4-yl)-2-[(2-butenyl)oxyimino]acetamido]-3-[(1,3,4-thiadiazol-2-yl)thiomethyl]-Δ^3 -O-2-isocephem-4-carboxylic acid trifluoroacetate (syn-isomer) [Example 38] | 0.39 | 0.1 | 0.2 | 0.2 | 0.39 | 0.78 | 1.56 | – | – | –
7-[2-(2-Aminothiazol-4-yl)-2-[(3-butenyl)oxyimino]acetamido]-3-[(1,3,4-thiadiazol-2-yl)thiomethyl-]-Δ^3 -O-2-isocephem-4-carboxylic acid trifluoroacetate (syn-isomer) [Example 40] | 6.25 | – | 3.13 | 6.25 | 3.13 | – | 25 | 3.13 | 12.5 | –
7-[2-(2-Chloroacetamidothiazol-4-yl)-2-allyloxyiminoacetamido]-3-[(1,3,4-thiadiazol-2-yl)thiomethyl]-Δ^3 -O-2-isocephem-4-carboxylic acid (syn-isomer) [Example 15] | 0.39 | ≤ 0.025 | 0.1 | ≤ 0.025 | ≤ 0.025 | – | 0.78 | – | 0.1 | –
7-[2-(2-Chloroacetamidothiazol-4-yl)-2-cyclopentyloxyiminoacetamido]-3-[(1,3,4-thiadiazol-2-yl)thiomethyl]-Δ^3 -O-2-isocephem-4-carboxylic acid (syn-isomer) [Example 26] | 0.2 | 0.05 | 0.2 | ≤ 0.025 | 0.05 | 0.39 | 0.39 | – | – | –
7-[2-(2-Chloroacetamidothiazol-4-yl)-2-methoxyiminoacetamido]-3-[(1,4,5,6-tetrahydro-4-methyl-5,6-dioxo-1,2,4-triazin-3-yl)thiomethyl]-Δ^3 -O-2-isocephem-4-carboxylic acid (syn-isomer) [Example 17] | 0.2 | ≤ 0.025 | ≤ 0.025 | ≤ 0.025 | ≤ 0.025 | – | 6.25 | – | ≤ 0.025 | –
7-[2-(2-Chloroacetamidothiazol-4-yl)-2-methoxyiminoacetamido]-3-[(carbamoyloxy)methyl]-Δ^3 -O-2-isocephem-4-carboxylic acid (syn-isomer) [Example 8] | 0.78 | 0.2 | 0.2 | 0.05 | 0.1 | 0.39 | 1.56 | – | – | –
7-[2-(2-Formamidothiazol-4-yl)-2-ethoxyiminoacetamido]-3-[(1,3,4-thiadiazol-2-yl)thiomethyl-]-Δ^3 -O-2-isocephem-4-carboxylic acid (syn-isomer) [Example 31] | 0.39 | ≤ 0.025 | 0.1 | ≤ 0.025 | 0.05 | 0.39 | 25 | – | – | –
7-[2-(2-Trichloroacetamidothiazol-4-yl)-2-methoxyiminoacetamido]-3-[(carbamoyloxy)methyl]-Δ^3 -O-2-isocephem-4-carboxylic acid (syn-isomer) [Example 7] | 0.78 | 0.1 | 0.2 | ≤ 0.025 | ≤ 0.025 | 0.39 | 0.78 | – | – | –
7-[2-(Thiazol-4-yl)-2-carboxymethoxyiminoacetamido]-Δ^3 -O-2-isocephem-4-carboxylic acid (syn-isomer) [No. 6] | 0.39 | 0.1 | 0.2 | ≤ 0.025 | 0.05 | – | 12.5 | – | 0.2 | –
Benzhydryl 7-[2-(2-formamidothiazol-4-yl)-2-methylthiomethoxyiminoacetamido]-3-[(1,3,4-thiadiazol-2-yl)thiomethyl]-Δ^3 -O-2-isocephem-4-carboxylate (syn-isomer) [Example 44] | 0.39 | – | 0.39 | – | 0.78 | 1.56 | 3.13 | 0.2 | – | 0.2
Benzhydryl 7-[2-(2-tritylaminothiazol-4-yl)-2-(2fluoroethoxy)iminoacetamido-]-3-[(1,3,4-thiadiazol-2-yl)thiomethyl]-Δ^3 -O-2-isocephem-4-carboxylate (syn-isomer) [Example 48] | 0.78 | ≤ 0.025 | 0.2 | ≤ 0.025 | ≤ 0.025 | 0.39 | 6.25 | – | – | –
Benzhydryl 7-[2-(2-tritylaminothiazol-4-yl)-2-[(1-tritylpyrazol-3-yl)methoxyiminoacetamido]-3-[(1,3,4-thiadiazol-2-yl)thiomethyl]-Δ^3 -O-2-isocephem-4-carboxylate (syn-isomer) [Example 23] | 6.25 | 0.2 | 0.1 | ≤ 0.025 | 0.1 | 0.39 | 12.5 | – | – | –
Benzhydryl 7-[2-(2-tritylaminothiazol-4-yl)-2-[(2-butenyl)oxyimino]acetamido]-3-[(1,3,4-thiadiazol-2-yl)thiomethyl]-Δ^3 -O-2-isocephem-4-carboxylate (syn-isomer) [Example 37] | 0.78 | 0.2 | 0.39 | 0.2 | 0.78 | – | 1.56 | – | 1.56 | –
Benzhydryl 7-[2-(2-tritylaminothiazol-4-yl)-2-cyclopropylmethyloxyiminoacetamido-]-3- (1,3,4-thiadiazol-2-yl)thiomethyl]-Δ^3 -O-2-isocephem-4-carboxylate (syn-isomer) [Example 35] | 0.2 | 0.2 | 0.2 | 0.2 | 0.39 | 0.39 | 0.39 | – | – | –
Benzhydryl 7-[2-(2-tritylaminothiazol-4-yl)-2-propargyloxyiminoacetamido]-3-[(1,3,4-thiadiazol-2-yl)thiomethyl]-Δ^3 -O-2-isocephem-4-carboxylate (syn-isomer) [Example 21] | 3.13 | 0.1 | 0.2 | ≤ 0.025 | 0.05 | 0.39 | 3.13 | – | – | –
Benzhydryl 7-[2-(2-tritylaminothiazol-4-yl)-2cyanomethyloxyiminoacetamido-]-3-[(1,3,4-thiadiazol-2-yl)thiomethyl]-Δ^3 -O-2-isocephem-4-carboxylate (syn-isomer) [Example 41] | 0.39 | 0.2 | 0.39 | 0.2 | 0.78 | – | 0.78 | – | 1.56 | –
Benzhydryl (6S,7S)-7-[2-(2-aminothiazol-4-yl)-2-methoxyiminoacetamido]-3-[(1,3,4-thiadiazol-2-yl)thiomethyl]-Δ^3 -O-2-isocephem-4-carboxylate (syn-isomer) [Example 59] | 0.39 | ≤ 0.025 | ≤ 0.025 | ≤ 0.025 | ≤ 0.025 | 0.39 | 25 | – | – | –
Benzyl7-[2-(2-aminothiazol-4-yl)-2-methoxyiminoacetamido]-3-[(carbamoyloxy)methyl]-Δ^3 -O-2-isocephem-4-carboxylate (syn-isomer) [Example 3] | 0.39 | 0.2 | 0.39 | ≤ 0.025 | ≤ 0.025 | 0.39 | 1.56 | – | – | –
Benzyl 7-[2-(2-chloroacetamidothiazol-4-yl)-2-(tert-butoxycarbonylmethoxyimino)acetamido]-3-[(1,3,4-thiadiazol-2-yl)thiomethyl]-Δ^3 -O-2-isocephem-4carboxylate (syn-isomer) [Example 2] | 0.78 | 0.05 | 0.2 | ≤ 0.025 | ≤ 0.025 | – | 3.13 | – | 0.2 | –
